The results in this text go back to patent publication US20260022142A1, “MACROCYCLIC IMMUNOMODULATORS” (Bristol-Myers Squibb Company, priority 2022, published 2026).

Bridge positions count the residues as written; N and C are the ends. Square brackets hold non-standard residues; d marks the D form. Peptide text beside a SMILES is read from it. * marks the point of attachment. ξ: configuration not given here. Phe(4-COOH) = N[C@@H](Cc1ccc(C(=O)O)cc1)C(=O)O; Bip = N[C@@H](Cc1ccc(-c2ccccc2)cc1)C(=O)O; X13 = N[C@@H](CN*)C(=O)NCCCCCCCCCCC(=O)O; Phe(3-Me) = Cc1cccc(C[C@H](N)C(=O)O)c1; hhGln = NC(=O)CCCC[C@H](N)C(=O)O; Cha = N[C@@H](CC1CCCCC1)C(=O)O; Cit = NC(=O)NCCC[C@H](N)C(=O)O; Carboxymethyl = O=C(O)C*; Orn = NCCC[C@H](N)C(=O)O; Aun = NCCCCCCCCCCC(=O)O; Dab = NCC[C@H](N)C(=O)O; ξE = NC(CCC(=O)O)C(=O)O; Dap = NC[C@H](N)C(=O)O; AEEA = NCCOCCOCC(=O)O

T1 sequence (Q15116 25-288): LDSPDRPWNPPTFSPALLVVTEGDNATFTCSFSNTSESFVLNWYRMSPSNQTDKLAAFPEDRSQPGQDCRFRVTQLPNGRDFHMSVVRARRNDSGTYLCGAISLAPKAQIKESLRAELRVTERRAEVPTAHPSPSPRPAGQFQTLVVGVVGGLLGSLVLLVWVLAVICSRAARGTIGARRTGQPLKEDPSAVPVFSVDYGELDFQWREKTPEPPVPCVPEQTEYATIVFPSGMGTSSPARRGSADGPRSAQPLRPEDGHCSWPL

The assay has as its target T1, PD-1/PD-L1 interaction (PE-labeled human PD-L1-Ig binding to Jurkat cell line over-expressing human PD-1) (Homo sapiens, UniProt Q15116).
T1 construct: expressed in transfected cells; host or cells: Jurkat
Kind of assay: Jurkat-PD-1 Cell Binding High-Content Screening Assay (CBA). The assay is classed as cell-based. The settings on record: Jurkat cell line over-expressing human PD-1; PE-labeled PD-L1-Ig 20 nM final; read-out: Jurkat hPD1-PDL1 IC50. Summed up: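 First, compound is added to PD-1-expressing Jurkat cells in serum-containing DMEM and left 2 h at 37° C. Next, PE-conjugated PD-L1-Ig is introduced at 20 nM final concentration for 1 hour. Finally, cells are fixed in 4% paraformaldehyde with Hoechst 33342, washed and imaged.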
Consider `CC(C)C[C@H]1NC(=O)[C@H](CCCN)NC(=O)[C@H](C(C)C)NC(=O)[C@H](Cc2ccc(-c3ccccc3)cc2)NC(=O)[C@H](C(C)C)NC(=O)[C@H](Cc2c[nH]c3ccccc23)NC(=O)[C@H](CC(=O)O)NC(=O)[C@H](Cc2ccc(C(=O)O)cc2)NC(=O)[C@H](Cc2ccc(OCC(=O)O)cc2)NC(=O)CSC[C@@H](C(=O)NCCCCCCCCCCC(=O)O)NC(=O)[C@H](CCCCN)NC(=O)[C@H](C(C)C)NC(=O)[C@H](CC2CCCCC2)NC(=O)[C@H](CCN)NC1=O` [Compound 2601] ({CH2CO}-Y(Carboxymethyl)[Phe(4-COOH)]DWV[Bip]V[Orn][dL][Dab][Cha]VKC[Aun]-OH; thioether N-14), for which the concentration for half-maximal inhibition (IC50) is 18.2 nM.

Consider `CC(C)C[C@H]1NC(=O)[C@H](CCCN)NC(=O)[C@H](C(C)C)NC(=O)[C@H](Cc2ccc(-c3ccccc3)cc2)NC(=O)[C@H](C(C)C)NC(=O)[C@H](Cc2c[nH]c3ccccc23)NC(=O)[C@H](CC(=O)O)NC(=O)[C@H](Cc2ccc(OCC(=O)O)cc2)NC(=O)[C@H](Cc2ccc(OCC(=O)O)cc2)NC(=O)CSC[C@@H](C(=O)NCCCCCCCCCCC(=O)O)NC(=O)[C@H](CCCNC(=N)N)NC(=O)[C@H](C(C)C)NC(=O)[C@H](CC2CCCCC2)NC(=O)[C@H](CCN)NC1=O` [Compound 2602], for which the 50% inhibitory concentration (IC50) was 18.4 nM.

As for `CC(C)C[C@H]1NC(=O)[C@H](CCCN)NC(=O)[C@H](C(C)C)NC(=O)[C@H](Cc2ccc(-c3ccccc3)cc2)NC(=O)[C@H](C(C)C)NC(=O)[C@H](Cc2c[nH]c3ccccc23)NC(=O)[C@H](CC(=O)O)NC(=O)[C@H](Cc2ccc(OCC(=O)O)cc2)NC(=O)[C@H](CN)NC(=O)CSC[C@@H](C(=O)NCCCCCCCCCCC(=O)O)NC(=O)[C@H](CCCCN)NC(=O)[C@H](C(C)C)NC(=O)[C@H](CC2CCCCC2)NC(=O)[C@H](CCN)NC1=O` [Compound 2603] ({CH2CO}-[Dap]Y(Carboxymethyl)DWV[Bip]V[Orn][dL][Dab][Cha]VKC[Aun]-OH; thioether N-14), the half-maximal inhibitory concentration (IC50) is 7.1 nM.

As for `Cc1cccc(C[C@@H]2NC(=O)[C@H](CC(=O)O)NC(=O)[C@H](Cc3ccc(OCC(=O)O)cc3)NC(=O)[C@H](CN)NC(=O)CSC[C@@H](C(=O)NCCCCCCCCCCC(=O)O)NC(=O)[C@H](CN)NC(=O)[C@H](C(C)C)NC(=O)[C@H](CC3CCCCC3)NC(=O)[C@H](CCN)NC(=O)[C@@H](CC(C)C)NC(=O)[C@H](CCCN)NC(=O)[C@H](C(C)C)NC(=O)[C@H](Cc3ccc(-c4ccccc4)cc3)NC(=O)[C@H](C(C)C)NC2=O)c1` [Compound 2604] ({CH2CO}-[Dap]Y(Carboxymethyl)D[Phe(3-Me)]V[Bip]V[Orn][dL][Dab][Cha]V[Dap]C[Aun]-OH; thioether N-14), the concentration for half-maximal inhibition (IC50) amounted to 13.2 nM.

Take `Cc1cccc(C[C@@H]2NC(=O)[C@H](CC(=O)O)NC(=O)[C@H](Cc3ccc(OCC(=O)O)cc3)NC(=O)[C@H](CN)NC(=O)CSC[C@@H](C(=O)NCCCCCCCCCCC(=O)O)NC(=O)[C@H](CCCN)NC(=O)[C@H](C(C)C)NC(=O)[C@H](CC3CCCCC3)NC(=O)[C@H](CCN)NC(=O)[C@@H](CC(C)C)NC(=O)[C@H](CCCN)NC(=O)[C@H](C(C)C)NC(=O)[C@H](Cc3ccc(-c4ccccc4)cc3)NC(=O)[C@H](C(C)C)NC2=O)c1` [Compound 2605] ({CH2CO}-[Dap]Y(Carboxymethyl)D[Phe(3-Me)]V[Bip]V[Orn][dL][Dab][Cha]V[Orn]C[Aun]-OH; thioether N-14): the IC50 was determined as 5.6 nM.

`CC(C)C[C@H]1NC(=O)[C@H](CCCN)NC(=O)[C@H](C(C)C)NC(=O)[C@H](Cc2ccc(-c3ccccc3)cc2)NC(=O)[C@H](C(C)C)NC(=O)[C@H](Cc2c[nH]c3ccccc23)NC(=O)[C@H](CC(=O)O)NC(=O)[C@H](Cc2ccc(OCC(=O)O)cc2)NC(=O)[C@H](Cc2ccc(OCC(=O)O)cc2)NC(=O)CSC[C@@H](C(=O)NCCCCCCCCCCC(=O)O)NC(=O)[C@H](CCCN)NC(=O)[C@H](C(C)C)NC(=O)[C@H](CC2CCCCC2)NC(=O)[C@H](CCN)NC1=O` [Compound 2607] ({CH2CO}-Y(Carboxymethyl)Y(Carboxymethyl)DWV[Bip]V[Orn][dL][Dab][Cha]V[Orn]C[Aun]-OH; thioether N-14): the half-inhibitory concentration (IC50) turned out to be 29.7 nM.

For the compound `CC(C)C[C@H]1NC(=O)[C@H](CCCN)NC(=O)[C@H](C(C)C)NC(=O)[C@H](Cc2ccc(-c3ccccc3)cc2)NC(=O)[C@H](C(C)C)NC(=O)[C@H](Cc2c[nH]c3ccccc23)NC(=O)[C@H](CC(=O)O)NC(=O)[C@H](Cc2ccc(OCC(=O)O)cc2)NC(=O)[C@H](Cc2ccc(OCC(=O)O)cc2)NC(=O)CSC[C@@H](C(=O)NCCCCCCCCCCC(=O)O)NC(=O)[C@H](CN)NC(=O)[C@H](C(C)C)NC(=O)[C@H](CC2CCCCC2)NC(=O)[C@H](CCN)NC1=O` [Compound 2608] ({CH2CO}-Y(Carboxymethyl)Y(Carboxymethyl)DWV[Bip]V[Orn][dL][Dab][Cha]V[Dap]C[Aun]-OH; thioether N-14), the concentration for half-maximal inhibition (IC50) was 31.7 nM.

In the case of `Cc1cccc(C[C@@H]2NC(=O)[C@H](CC(=O)O)NC(=O)[C@H](Cc3ccc(OCC(=O)O)cc3)NC(=O)[C@H](CN)NC(=O)CSC[C@@H](C(=O)N[C@@H](C)C(=O)NC(CCC(=O)O)C(=O)NCCOCCOCC(=O)NCCCCCCCCCCC(=O)O)NC(=O)[C@H](CCCN)NC(=O)[C@H](C(C)C)NC(=O)[C@H](CC3CCCCC3)NC(=O)[C@H](CCN)NC(=O)[C@@H](CC(C)C)NC(=O)[C@H](CCCN)NC(=O)[C@H](CCCCC(N)=O)NC(=O)[C@H](Cc3ccc(-c4ccccc4)cc3)NC(=O)[C@H](C(C)C)NC2=O)c1` (stereo partly drawn) [Compound 2615] ({CH2CO}-[Dap]Y(Carboxymethyl)D[Phe(3-Me)]V[Bip][hhGln][Orn][dL][Dab][Cha]V[Orn]CA[ξE][AEEA][Aun]-OH; thioether N-14), the half-inhibitory concentration (IC50) was 8.5 nM.

In the case of `Cc1cccc(C[C@@H]2NC(=O)[C@H](CC(=O)O)NC(=O)[C@H](Cc3ccc(OCC(=O)O)cc3)NC(=O)[C@H](CN)NC(=O)CSC[C@@H](C(=O)N[C@@H](C)C(=O)NC(CCC(=O)O)C(=O)NCCOCCOCC(=O)NCCCCCCCCCCC(=O)O)NC(=O)[C@H](CN)NC(=O)[C@H](C(C)C)NC(=O)[C@H](CC3CCCCC3)NC(=O)[C@H](CCN)NC(=O)[C@@H](CC(C)C)NC(=O)[C@H](CCCN)NC(=O)[C@H](CCCNC(N)=O)NC(=O)[C@H](Cc3ccc(-c4ccccc4)cc3)NC(=O)[C@H](C(C)C)NC2=O)c1` (stereo partly drawn) [Compound 2616] ({CH2CO}-[Dap]Y(Carboxymethyl)D[Phe(3-Me)]V[Bip][Cit][Orn][dL][Dab][Cha]V[Dap]CA[ξE][AEEA][Aun]-OH; thioether N-14), the concentration for half-maximal inhibition (IC50) was found to be 16.1 nM.

On to `Cc1cccc(C[C@@H]2NC(=O)[C@H](CC(=O)O)NC(=O)[C@H](Cc3ccc(OCC(=O)O)cc3)NC(=O)[C@H](CN)NC(=O)CSC[C@@H](C(=O)N[C@@H](C)C(=O)N[C@@H](CCC(=O)O)C(=O)NCCCCCCCCCCC(=O)O)NC(=O)[C@H](CCCN)NC(=O)[C@H](C(C)C)NC(=O)[C@H](CC3CCCCC3)NC(=O)[C@H](CCN)NC(=O)[C@@H](CC(C)C)NC(=O)[C@H](CCCN)NC(=O)[C@H](CCCNC(N)=O)NC(=O)[C@H](Cc3ccc(-c4ccccc4)cc3)NC(=O)[C@H](C(C)C)NC2=O)c1` [Compound 2617] ({CH2CO}-[Dap]Y(Carboxymethyl)D[Phe(3-Me)]V[Bip][Cit][Orn][dL][Dab][Cha]V[Orn]CAE[Aun]-OH; thioether N-14), for which the IC50 came to 6.3 nM.

In the case of `Cc1cccc(C[C@@H]2NC(=O)[C@H](CC(=O)O)NC(=O)[C@H](Cc3ccc(OCC(=O)O)cc3)NC(=O)[C@H](CN)NC(=O)CSC[C@@H](C(=O)N[C@@H](C)C(=O)N[C@@H](CCC(=O)O)C(=O)NCCCCCCCCCCC(=O)O)NC(=O)[C@H](CN)NC(=O)[C@H](C(C)C)NC(=O)[C@H](CC3CCCCC3)NC(=O)[C@H](CCN)NC(=O)[C@@H](CC(C)C)NC(=O)[C@H](CCCN)NC(=O)[C@H](CCCNC(N)=O)NC(=O)[C@H](Cc3ccc(-c4ccccc4)cc3)NC(=O)[C@H](C(C)C)NC2=O)c1` [Compound 2618] ({CH2CO}-[Dap]Y(Carboxymethyl)D[Phe(3-Me)]V[Bip][Cit][Orn][dL][Dab][Cha]V[Dap]CAE[Aun]-OH; thioether N-14), the half-maximal inhibitory concentration (IC50) was 12.5 nM.

With `Cc1cccc(C[C@@H]2NC(=O)[C@H](CC(=O)O)NC(=O)[C@H](Cc3ccc(OCC(=O)O)cc3)NC(=O)[C@H](CN)NC(=O)CSC[C@@H](C(=O)N[C@@H](C)CC(=O)NCCCCCCCCCCC(=O)O)NC(=O)[C@H]([C@@H](C)O)NC(=O)[C@H](C(C)C)NC(=O)[C@H](CC3CCCCC3)NC(=O)[C@H](CCN)NC(=O)[C@@H](CC(C)C)NC(=O)[C@H](CCCN)NC(=O)[C@H](CCCNC(N)=O)NC(=O)[C@H](Cc3ccc(-c4ccccc4)cc3)NC(=O)[C@H](C(C)C)NC2=O)c1` [Compound 2619], the IC50 is 24.4 nM.

For `Cc1cccc(C[C@@H]2NC(=O)[C@H](CC(=O)O)NC(=O)[C@H](Cc3ccc(OCC(=O)O)cc3)NC(=O)[C@H](CN)NC(=O)CSC[C@@H](C(=O)N[C@H](C)CC(=O)NCCCCCCCCCCC(=O)O)NC(=O)[C@H]([C@@H](C)O)NC(=O)[C@H](C(C)C)NC(=O)[C@H](CC3CCCCC3)NC(=O)[C@H](CCN)NC(=O)[C@@H](CC(C)C)NC(=O)[C@H](CCCN)NC(=O)[C@H](CCCNC(N)=O)NC(=O)[C@H](Cc3ccc(-c4ccccc4)cc3)NC(=O)[C@H](C(C)C)NC2=O)c1` [Compound 2620], the IC50 was 28.1 nM.

Take `Cc1cccc(C[C@@H]2NC(=O)[C@H](CC(=O)O)NC(=O)[C@H](Cc3ccc(OCC(=O)O)cc3)NC(=O)[C@H](CN)NC(=O)CSC[C@@H](C(=O)NC[C@H](N)C(=O)NCCCCCCCCCCC(=O)O)NC(=O)[C@H]([C@@H](C)O)NC(=O)[C@H](C(C)C)NC(=O)[C@H](CC3CCCCC3)NC(=O)[C@H](CCN)NC(=O)[C@@H](CC(C)C)NC(=O)[C@H](CCCN)NC(=O)[C@H](CCCNC(N)=O)NC(=O)[C@H](Cc3ccc(-c4ccccc4)cc3)NC(=O)[C@H](C(C)C)NC2=O)c1` [Compound 2621] ({CH2CO}-[Dap]Y(Carboxymethyl)D[Phe(3-Me)]V[Bip][Cit][Orn][dL][Dab][Cha]VTC-X13; thioether N-14): the IC50 turned out to be 16.8 nM.

The term IC50 denotes the midpoint of a concentration-inhibition curve.
